The text below walks through data of PubChem BioAssay (NCI).

Test systems include MDA-N; DMS 273 small cell lung; KM20L2 colon; RXF-631 renal; SNB-78 CNS; DLD-1 colon; DMS 114 small cell lung; HOP-18 NSCLC; XF 498 CNS; SN12K1 renal; P388/ADR leukemia.
Test in all cases: NCI tumour cell line growth inhibition, 48 h

Each structure is given as a SMILES string. “And” between values parts separate entries of the source, which are not always exact repeats. Equal values may be shown once.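 In this assay, cells in 96-well plates receive the compound at five concentrations for 48 hours. Endpoints are linearly interpolated between the surrounding concentrations. At the GI50, growth is halved. The concentration for full growth arrest is given as TGI.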

`Nc1nc(N)c2c(n1)CCC(S(=O)(=O)c1ccc3ccccc3c1)C2` (centres undefined): the TGI in the assay with MDA-N was > 100 µM.
With `COc1cc(CC(=O)O)c([N+](=O)[O-])cc1OC`, the TGI with DMS 273 small cell lung, in the assay on KM20L2 colon, in the assay with RXF-631 renal, with SNB-78 CNS, in the assay on DLD-1 colon and with DMS 114 small cell lung was > 100 µM throughout.
In turn, `c1ccc(CC(Nc2cccnc2)c2ccccc2)cc1` (centres undefined) gave a TGI in the assay on MDA-N of 47.8 µM.
On to `O=C(O)c1ccc(/C=N/N=C2c3ccccc3-c3ccccc32)cc1`, for which the TGI in the assay on MDA-N is > 100 µM.
The same measure, in the same setting: then `CC#CC#C/C(=C/C=CC(=O)OC)SC`, with > 100 µM.
For `Cc1cc(C)c(/C=N/NS(=O)(=O)c2ccccc2)c(C)c1`, the TGI with DMS 273 small cell lung, in the assay with KM20L2 colon, in the assay with RXF-631 renal, with HOP-18 NSCLC, in the assay on SNB-78 CNS and in the assay with DLD-1 colon was > 100 µM each time. Also, the TGI with DMS 114 small cell lung is > 100 µM.
`Cc1c(Cl)c(C)c(Cl)c(O)c1Cl` registered a TGI in the assay with MDA-N of 99.2 µM.
Turning to `N#Cc1cccc(C2C(=O)c3ccc(C(=O)c4ccc5c(c4)C(=O)N(c4ccc(Oc6ccc(N7C(=O)c8ccc(C(=O)c9ccc%10c(c9)C(=O)N(c9cccc(C#N)c9)C%10=O)cc8C7=O)cc6)cc4)C5=O)cc3C2=O)c1` (centres undefined), the TGI in the assay on DMS 273 small cell lung, in the assay with KM20L2 colon, in the assay with XF 498 CNS, in the assay with RXF-631 renal, in the assay with DLD-1 colon and in the assay with DMS 114 small cell lung was > 100 µM throughout.
Take `Cc1ccc(NC(=O)CC2SC(=Nc3ccc(Cl)cc3)NC2=O)cc1C` (centres undefined): the TGI in the assay on DMS 273 small cell lung is 34.3 µM; with KM20L2 colon it was 33.5 µM; in the assay on HOP-18 NSCLC, 32.5 µM; with SNB-78 CNS it was 44.3 µM; with DLD-1 colon, 38.5 µM; in the assay on DMS 114 small cell lung, 42.1 µM.
For `Fc1ccc(N=C2C=CC(=Nc3ccc(F)cc3)c3ccccc32)cc1`, the TGI in the assay with DMS 273 small cell lung, in the assay with KM20L2 colon, in the assay on XF 498 CNS, in the assay with HOP-18 NSCLC, in the assay on SNB-78 CNS and with DLD-1 colon was > 100 µM in each case.
`CC1=CC[C@@H](C(C)(C)O)C[C@@H]1O`: the TGI with KM20L2 colon, in the assay with XF 498 CNS, in the assay on RXF-631 renal, in the assay on SNB-78 CNS, in the assay with DLD-1 colon and in the assay on DMS 114 small cell lung was > 5000 µM in each case.
With `CC1C(O)=C(O)c2ccccc2N1O` (centres undefined), the TGI in the assay with DMS 273 small cell lung, in the assay on KM20L2 colon, with XF 498 CNS, with RXF-631 renal, in the assay on HOP-18 NSCLC and with SNB-78 CNS was > 100 µM each time. Also, the TGI in the assay on DLD-1 colon was > 100 µM.
For the molecule `CCC(C)C1NC(=O)C(NC(=O)C(CC(C)C)N(C)C(=O)[C@@H]2CC(O)CN2C(=O)[C@H](C)O)C(C)OC(=O)[C@H](Cc2ccc(OC)cc2)N(C)C(=O)[C@@H]2CCCN2C(=O)[C@H](CC(C)C)NC(=O)C(C)C(=O)[C@H](C(C)C)OC(=O)CC1O` (some centres undefined), in the assay on MDA-N, the GI50 was 0.0292 µM; the TGI is 1.07 µM and 1.11 µM.
Turning to `Clc1ccccc1C1SCc2nc3ccccc3n21` (centres undefined), the figures for the TGI in the assay with XF 498 CNS, with SNB-78 CNS and in the assay with DLD-1 colon were 87.2 µM, 53.6 µM and > 100 µM, respectively.
For the molecule `CCn1ncc(N=O)c1N`, the TGI in the assay on MDA-N is > 100 µM.
The same measure, in the same setting: the figure for `CC(C)C1=CC2=C(C(=O)C1=O)C13CCCC(C)(C)C1CC2OC3=O` (centres undefined) is 37.2 µM.
Same read-out and setting: then `COC1C(=O)CCC2(CO2)C1(O)C1(C)OC1CC=C(C)C` (centres undefined), with > 100 µM; and `COc1cc2c(cc1[N+](=O)[O-])C(=O)C(Br)(Br)CCC2`, with 9.46 µM.
Consider `Cc1ccccc1-n1c(CCl)nc2ccc(Br)cc2c1=O`, for which the TGI in the assay with DMS 273 small cell lung was > 100 µM; in the assay on KM20L2 colon, 39.9 µM; with RXF-631 renal, 42.1 µM; in the assay with HOP-18 NSCLC it was 55.3 µM; in the assay with SNB-78 CNS, 52.2 µM; in the assay with DLD-1 colon, 16.6 µM. Further, the TGI in the assay with DMS 114 small cell lung was found to be 20.5 µM.
Take `CCCCCCCCCC[C@H](O)[C@H]1CC[C@@H]([C@@H](O)CC[C@H](O)[C@@H]2CCC(CCCCCCC[C@@H](O)CC3=C[C@H](C)OC3=O)O2)O1` (some centres undefined): in the assay with MDA-N, the GI50 is 2.1 µM and the TGI was 16 µM.
As to `CC1[C@@H]2CC=C3[C@H]4CCC5Cc6nc7c(nc6C[C@@]5(C)C4CC(=O)[C@]32CO[C@]12OC(C)(C)CC2O)CC1CC[C@@H]2C3=C[C@H]4O[C@@]5(O[C@@](C)(CO)C[C@@H]5O)C(C)[C@@]4(O)[C@]3(C)[C@@H](O)CC2[C@]1(C)C7` (some centres undefined), the GI50 with DMS 273 small cell lung was 0.000365 µM; in the assay with KM20L2 colon it was 0.00119 µM and 0.00294 µM; in the assay with XF 498 CNS, 0.000725 µM and 0.00479 µM; in the assay with RXF-631 renal, 0.000312 µM; in the assay with SNB-78 CNS, 0.000777 µM and 0.00329 µM; in the assay with MDA-N, 0.00389 µM. In addition, the GI50 with DLD-1 colon was 0.0416 µM and 0.0575 µM. Also, the TGI with DMS 273 small cell lung was 0.000328 µM and 0.000802 µM; in the assay on KM20L2 colon it was 0.0349 µM and 0.0754 µM; in the assay on SN12K1 renal, 0.397 µM; with XF 498 CNS it was 0.424 µM and 1.8 µM; in the assay with RXF-631 renal, 0.00275 µM; in the assay with HOP-18 NSCLC, 0.393 µM and > 3.65 µM. Also, the TGI is 0.0303 µM with MDA-N; 0.0109 µM in the assay on P388/ADR leukemia; 0.709 µM and > 3.65 µM in the assay on DLD-1 colon; 0.0424 µM in the assay with DMS 114 small cell lung.
Consider `CC1(C)C(CC(=O)O)CCCC1CC(=O)O` (centres undefined), for which the TGI with MDA-N was > 100 µM.
As for `CC(=O)O[C@@H]1CC[C@@]2(C)C(=O)C34C[C@@]5(C)C([C@@H](C)CCCC(C)C)CCC5(C)[C@](O)(O3)C(=O)[C@H]4C2C1(C)C` (some centres undefined), the TGI in the assay with DMS 273 small cell lung amounted to 27.2 µM; in the assay on KM20L2 colon, 32.5 µM; with RXF-631 renal it was 34.2 µM; with HOP-18 NSCLC it was 29.5 µM; with SNB-78 CNS, 48.2 µM; in the assay on DLD-1 colon, 34.7 µM. Besides, the TGI with DMS 114 small cell lung is 33.6 µM.
On to `[CH3][Hg]/[N]=C(/N)NC#N`, for which the GI50 was 13.5 µM with DMS 273 small cell lung; 17.3 µM with KM20L2 colon; 4.63 µM in the assay on HOP-18 NSCLC; 4.76 µM in the assay on SNB-78 CNS; 4.27 µM in the assay on DLD-1 colon; 1.98 µM with DMS 114 small cell lung. In addition, the TGI with DMS 273 small cell lung worked out at 27.5 µM; in the assay on KM20L2 colon, 33.4 µM; with HOP-18 NSCLC, 17.1 µM; in the assay on SNB-78 CNS, 27.1 µM; in the assay on DLD-1 colon, 16.9 µM; in the assay on DMS 114 small cell lung it was 3.43 µM.
As for `CN(C)c1ccc(/C=c2/c3cc(O)ccc3n3c2cc(-c2ccccc2)[n+]3C)cc1`, the TGI in the assay on MDA-N is 1.96 µM.
For the molecule `CCc1ncc(CO)n1Cc1cccc2ccccc12`, the TGI with MDA-N was > 100 µM.
In the case of `O=C(Cc1nc2ccccc2o1)C(=O)Nc1ccc(Cl)cc1Cl`, the TGI with DMS 273 small cell lung, in the assay on KM20L2 colon, in the assay with HOP-18 NSCLC, with SNB-78 CNS, with DLD-1 colon and in the assay on DMS 114 small cell lung was > 100 µM throughout.
For the molecule `CC1=C(C(=O)Nc2ccc(C)cc2)C(c2cccc([N+](=O)[O-])c2)C(C(=O)Nc2ccc(C)cc2)=C(C)N1`, the TGI in the assay with DMS 273 small cell lung was > 100 µM; in the assay with KM20L2 colon, 48 µM; with XF 498 CNS, 50.7 µM; with RXF-631 renal, 91.3 µM; with HOP-18 NSCLC, 80.2 µM; with SNB-78 CNS, > 100 µM. Further, the TGI with DLD-1 colon is > 100 µM; in the assay with DMS 114 small cell lung it was 74.2 µM.
As for `NC(=O)c1csc(-c2ccc(CO)o2)n1`, in the assay on MDA-N, the TGI was > 100 µM.
As for `COc1ccc2nc3ccccc3c(NCCN(CCCl)CCCl)c2c1`, the TGI with KM20L2 colon was found to be 2.4 µM; with XF 498 CNS, 1.89 µM; with RXF-631 renal, 4.71 µM; with SNB-78 CNS it was 4.53 µM; in the assay with DLD-1 colon, 4.04 µM.
In the case of `N#CCCN(c1ccc(C=O)cc1)S(=O)(=O)c1ccccc1`, the TGI in the assay on DMS 273 small cell lung, with KM20L2 colon, in the assay with XF 498 CNS and with DMS 114 small cell lung was > 100 µM throughout.
Consider `CC(=O)Nc1ccc(C2=N/C(=C\c3ccc(Cl)cc3)C(=O)O2)cc1`, for which the TGI is > 100 µM with DMS 273 small cell lung; > 100 µM in the assay with KM20L2 colon; 61.4 µM with XF 498 CNS; > 100 µM in the assay on HOP-18 NSCLC; > 100 µM with SNB-78 CNS; > 100 µM in the assay with DLD-1 colon.
Take `O=C(CC1(O)C(=O)Nc2ccccc21)c1ccccc1O` (centres undefined): the TGI in the assay on DMS 273 small cell lung, with KM20L2 colon, with XF 498 CNS, with RXF-631 renal, with SNB-78 CNS and in the assay with DLD-1 colon was > 100 µM each time. Further, the TGI in the assay with DMS 114 small cell lung is > 100 µM.
Consider `Cc1cc(C)nc(NS(=O)(=O)c2ccc(NC(=O)COC(=O)c3cccc4c(=O)c5ccccc5[nH]c34)cc2)n1`, for which the TGI with DMS 273 small cell lung, with KM20L2 colon, with XF 498 CNS, in the assay on SNB-78 CNS, with DLD-1 colon and in the assay with DMS 114 small cell lung was > 100 µM each time.
Turning to `COc1ccc([C@@H]2OC(=O)C3C2C(=O)O[C@H]3c2ccc(OC)cc2)cc1` (some centres undefined), the TGI in the assay on DMS 273 small cell lung, with KM20L2 colon, in the assay on XF 498 CNS, with RXF-631 renal, in the assay on HOP-18 NSCLC and in the assay on SNB-78 CNS was > 100 µM throughout. In addition, the TGI with DLD-1 colon and with DMS 114 small cell lung was > 100 µM each time.
Turning to `COC(=O)C(C(=O)C(=O)Nc1ccccc1C)c1nc2ccc([N+](=O)[O-])cc2[nH]c1=O` (centres undefined), the TGI in the assay with DMS 273 small cell lung, in the assay on KM20L2 colon, with XF 498 CNS, in the assay on HOP-18 NSCLC, in the assay with SNB-78 CNS and with DLD-1 colon was > 100 µM throughout. Further, the TGI in the assay with DMS 114 small cell lung is > 100 µM.
Regarding `Cc1cc(Cl)cc2c1NC(=O)C2(O)C(C(=O)c1ccccc1)c1ccccc1` (centres undefined), the TGI with DMS 273 small cell lung is > 100 µM; with KM20L2 colon, > 100 µM; with XF 498 CNS, 82.7 µM and > 100 µM; with RXF-631 renal, > 100 µM; in the assay on HOP-18 NSCLC, > 100 µM and 95.7 µM; in the assay with SNB-78 CNS, > 100 µM. The TGI was > 100 µM with DLD-1 colon; 85.7 µM and 45.8 µM in the assay on DMS 114 small cell lung. Moreover, the GI50 with HOP-18 NSCLC was > 100 µM and 22 µM.
In the case of `CCOC(=O)C(=O)C(C#N)c1ccc(Cl)cc1` (centres undefined), the TGI in the assay on DMS 273 small cell lung, in the assay on KM20L2 colon, in the assay with XF 498 CNS, with SNB-78 CNS, in the assay on DLD-1 colon and in the assay with DMS 114 small cell lung was > 100 µM each time.
